Reference: ChEMBL document CHEMBL3885861, “Open TG-GATES”

Species on record: Rattus norvegicus
Experiment: Open TG-GATES - Regimen: Daily Repeat
Type: toxicity, organism-based, Sprague-Dawley
Parameters: regimen Daily Repeat, gender Male, age 6 weeks
Conditions: in vivo, po, route gavage; for APTT / Bas / Eos / Fbg / Ht / Lym / MCH / MCHC / MCV / PT / Plat / RBC / Ret / WBC / Hb / Mono / Neu: tissue Blood; for KIDNEY_L / KIDNEY_R / KIDNEY_TOTAL: tissue Kidney; for LIVER: tissue Liver; for ALP / ALT / AST / CRE / Ca / Cl / DBIL / IP / K / LDH / Na / PL / RALB / TBIL / TC / TG / TP / gamma-GTP / BUN: tissue Plasma
[1] = 0 mg/kg, 72 h, dose level Control, time 3 day
[2] = 0 mg/kg, […], dose level Control, time 14 day
[3] = 0 mg/kg, […], dose level Control, time 28 day
[4] = 1 mg/kg, 72 h, dose level Low, time 3 day
[5] = 1 mg/kg, […], dose level Low, time 14 day
[6] = 1 mg/kg, […], dose level Low, time 28 day

C#C[C@]1(O)CC[C@H]2[C@@H]3CCc4cc(O)ccc4[C@H]3CC[C@@]21C [ETHINYL ESTRADIOL]
TERMINAL_BW [1]: 222.5 g
APTT [1]: 16.4 s
Bas [1]: 0.2%
Eos [1]: 1%
Fbg [1]: 261.6 mg/dL
Ht [1]: 40.2%
Lym [1]: 79%
MCH [1]: 21.4 pg
MCHC [1]: 33.5%
MCV [1]: 63.8 fL
PT [1]: 12.3 s
Plat [1]: 110.8 x10_4/uL
RBC [1]: 630.4 x10_4/ul
Ret [1]: 7.8%
WBC [1]: 93.3 x10_2/uL
KIDNEY_L [1]: 0.9 g
KIDNEY_R [1]: 1 g
LIVER [1]: 10.3 g
ALP [1]: 1467.2 IU/L
ALT [1]: 49.6 IU/L
AST [1]: 73.2 IU/L
CRE [1]: 0.2 mg/dL
Ca [1]: 10.8 mg/dL
Cl [1]: 106.8 meq/L
DBIL [1]: 0.018 mg/dL
IP [1]: 6.5 mg/dL
K [1]: 4 meq/L
LDH [1]: 68.4 IU/L
Na [1]: 143.2 meq/L
PL [1]: 134.2 mg/dL
RALB [1]: 2.6 g/dL
TBIL [1]: 0.034 mg/dL
TC [1]: 77.8 mg/dL
TG [1]: 98.2 mg/dL
TP [1]: 5.5 g/dL
gamma-GTP [1]: 1.2 IU/L
TERMINAL_BW [2]: 321.6 g
TERMINAL_BW [3]: 423 g
APTT [2]: 16.7 s
Bas [2]: 0%
Eos [2]: 1%
Fbg [2]: 279.4 mg/dL
Hb [2]: 13.9 g/dL
Ht [2]: 40.3%
Lym [2]: 76.4%
MCH [2]: 20.9 pg
MCV [2]: 60.2 fL
Mono [2]: 2.4%
PT [2]: 11.8 s
Plat [2]: 120 x10_4/uL
RBC [2]: 668.4 x10_4/ul
Ret [2]: 4.5%
WBC [2]: 90.3 x10_2/uL
APTT [3]: 18 s
Bas [3]: 0.2%
Eos [3]: 1%
Fbg [3]: 294.2 mg/dL
Hb [3]: 15 g/dL
Ht [3]: 42.5%
Lym [3]: 79.4%
MCH [3]: 20.3 pg
MCHC [3]: 35.3%
MCV [3]: 57.3 fL
Mono [3]: 2.2%
Plat [3]: 88.3 x10_4/uL
RBC [3]: 742.6 x10_4/ul
Ret [3]: 2.6%
WBC [3]: 108.2 x10_2/uL
KIDNEY_L [2]: 1.3 g
KIDNEY_R [2]: 1.3 g
KIDNEY_TOTAL [2]: 2.6 g
KIDNEY_L [3]: 1.4 g
KIDNEY_R [3]: 1.4 g
KIDNEY_TOTAL [3]: 2.8 g
LIVER [2]: 14.4 g
LIVER [3]: 18.3 g
ALP [2]: 1586.6 IU/L
ALT [2]: 44.2 IU/L
AST [2]: 66.6 IU/L
BUN [2]: 15.4 mg/dL
CRE [2]: 0.2 mg/dL
Ca [2]: 11.3 mg/dL
Cl [2]: 104.8 meq/L
DBIL [2]: 0.016 mg/dL
IP [2]: 6.5 mg/dL
K [2]: 3.9 meq/L
LDH [2]: 72.8 IU/L
Na [2]: 143.2 meq/L
PL [2]: 143 mg/dL
TBIL [2]: 0.07 mg/dL
TC [2]: 74.6 mg/dL
TG [2]: 104.4 mg/dL
TP [2]: 6 g/dL
gamma-GTP [2]: 0.8 IU/L
ALP [3]: 1125 IU/L
ALT [3]: 39.4 IU/L
AST [3]: 58 IU/L
BUN [3]: 16 mg/dL
CRE [3]: 0.2 mg/dL
Cl [3]: 104.8 meq/L
DBIL [3]: 0.012 mg/dL
IP [3]: 6.1 mg/dL
K [3]: 3.8 meq/L
LDH [3]: 59.2 IU/L
Na [3]: 143.2 meq/L
PL [3]: 155.8 mg/dL
RALB [3]: 2.9 g/dL
TBIL [3]: 0.066 mg/dL
TC [3]: 80.4 mg/dL
TG [3]: 137.2 mg/dL
TP [3]: 6.3 g/dL
gamma-GTP [3]: 1 IU/L
TERMINAL_BW [4]: 204.6 g
APTT [4]: 17 s
Bas [4]: 0%
Eos [4]: 1%
Fbg [4]: 309.6 mg/dL
Ht [4]: 39.1%
Lym [4]: 82.4%
MCHC [4]: 34.2%
MCV [4]: 62.3 fL
Mono [4]: 3.6%
Neu [4]: 12.6%
PT [4]: 13.1 s
Plat [4]: 107.6 x10_4/uL
RBC [4]: 627.4 x10_4/ul
Ret [4]: 5.1%
WBC [4]: 72 x10_2/uL
KIDNEY_L [4]: 1 g
KIDNEY_R [4]: 1 g
KIDNEY_TOTAL [4]: 2 g
LIVER [4]: 11.7 g
ALP [4]: 2115.4 IU/L
ALT [4]: 41.2 IU/L
AST [4]: 84.2 IU/L
BUN [4]: 9.4 mg/dL
CRE [4]: 0.2 mg/dL
Ca [4]: 10.6 mg/dL
Cl [4]: 107.4 meq/L
DBIL [4]: 0.038 mg/dL
IP [4]: 7.4 mg/dL
K [4]: 4 meq/L
LDH [4]: 95.4 IU/L
Na [4]: 144 meq/L
PL [4]: 82.6 mg/dL
RALB [4]: 2.6 g/dL
TBIL [4]: 0.07 mg/dL
TC [4]: 29.4 mg/dL
TG [4]: 73.6 mg/dL
TP [4]: 5.6 g/dL
gamma-GTP [4]: 1.2 IU/L
TERMINAL_BW [5]: 243.2 g
TERMINAL_BW [6]: 264.8 g
APTT [5]: 23 s
Bas [5]: 0%
Eos [5]: 1%
Fbg [5]: 328.6 mg/dL
Hb [5]: 13.9 g/dL
Ht [5]: 38.9%
Lym [5]: 77.6%
MCH [5]: 20.1 pg
MCHC [5]: 35.6%
MCV [5]: 56.3 fL
PT [5]: 13.5 s
Plat [5]: 120.8 x10_4/uL
RBC [5]: 690.2 x10_4/ul
Ret [5]: 1.8%
WBC [5]: 80.9 x10_2/uL
APTT [6]: 27.7 s
Bas [6]: 0%
Eos [6]: 1%
Fbg [6]: 328.6 mg/dL
Hb [6]: 14.3 g/dL
Ht [6]: 39%
Lym [6]: 77.6%
MCH [6]: 19.9 pg
MCHC [6]: 36.7%
MCV [6]: 54.2 fL
Mono [6]: 2.6%
Neu [6]: 18.8%
PT [6]: 13.6 s
Plat [6]: 113.5 x10_4/uL
RBC [6]: 720.8 x10_4/ul
Ret [6]: 2.4%
WBC [6]: 82.1 x10_2/uL
KIDNEY_L [5]: 1 g
KIDNEY_R [5]: 1 g
KIDNEY_TOTAL [5]: 2 g
KIDNEY_L [6]: 1 g
KIDNEY_R [6]: 1 g
KIDNEY_TOTAL [6]: 2 g
LIVER [5]: 13.6 g
LIVER [6]: 14.4 g
ALP [5]: 1995.4 IU/L
ALT [5]: 41 IU/L
AST [5]: 53.8 IU/L
BUN [5]: 13.2 mg/dL
CRE [5]: 0.2 mg/dL
Cl [5]: 105.8 meq/L
DBIL [5]: 0.03 mg/dL
IP [5]: 5.7 mg/dL
K [5]: 3.9 meq/L
LDH [5]: 60.8 IU/L
Na [5]: 143.8 meq/L
PL [5]: 105.4 mg/dL
RALB [5]: 2.9 g/dL
TBIL [5]: 0.084 mg/dL
TC [5]: 33.4 mg/dL
TG [5]: 68 mg/dL
TP [5]: 6.5 g/dL
ALP [6]: 1546.2 IU/L
ALT [6]: 37.8 IU/L
AST [6]: 50.6 IU/L
BUN [6]: 14 mg/dL
CRE [6]: 0.3 mg/dL
Ca [6]: 10.8 mg/dL
Cl [6]: 105.4 meq/L
DBIL [6]: 0.036 mg/dL
IP [6]: 5.3 mg/dL
K [6]: 3.6 meq/L
LDH [6]: 38 IU/L
Na [6]: 144 meq/L
PL [6]: 147 mg/dL
RALB [6]: 3 g/dL
